Like-named read-outs stand apart in the source and are kept apart here.
Assays:
Type in all cases: physicochemical
[1] = Dispersability for pigment, organic pigment Red No. 202
Source text: (§1) Titanium dioxide, red iron oxide and organic pigment used in the measurement are PIGMOLITE CR-50, PIGMOLITE BENGARA No. 211 and Red 202, respectively, manufactured by DAITO KASEI KOGYO Co. Ltd. The dispersability is expressed by amount (g) of the tested sample per 100 g of the pigment at wet point (W.P) and flow point (F.P).

[2] = Dispersability for pigment, titanium dioxide
Source text: as §1

[3] = Dispersability for pigment, red iron oxide; conditions: amount of tested sample per 100 g of the pigment at wet point
Source text: as §1

[4] = Refractive index (refractometer Model 3)
Description: Refractive index of the dimerdiol esters obtained in Examples 1, 3, 5, 7, 9 and 11 were measured. Each of the refractive index was measured at 30° C. using a refractometer Model 3 (Manufactured by ATAGO BUSSAN Ltd.).
Refractive index of the esters obtained in Examples 28-35 were measured. Each of the refractive index was measured at 20° C. using a refractometer Model 3 (Manufactured by ATAGO BUSSAN Ltd.).

[5] = Gloss of wax-solidified ester (handy glossmeter); conditions: coated on paraffin paper, intensity of reflected light at 60°
Description: Each of the solidified product was coated on paraffin paper and gloss was measured with a handy glossmeter manufactured by HORIBA Ltd. Gloss was expressed by intensity of light reflected on the coated surface of paraffin paper at incident angle/reflection angle of 60°.

[6] = Alkali hydrolysis resistance; conditions: 0.8 g of sample heated at 80° C. for 3 hours in 25 mL of 0.05 N KOH-ethanol solution
Description: Alkali hydrolysis resistance of the dimerdiol esters obtained in Examples 1, 3, 5, 7, 9 and 11 were measured. The alkali hydrolysis resistance was expressed by the decomposition ratio of 0.8 g of sample which was heated at 80° C. for 3 hours in 25 mL of 0.05 N of KOH-ethanol solution.

[7] = Oxidation stability, Rancimat 676 automatic oils and fats stability test
Source text: Index of the oxidation stability was expressed by the time until conductance of the trapped water started rising. […] Index of the oxidation stability was expressed by the time until conductance of the trapped water started rising.

[8] = amount of tested sample per 100 g of the pigment at flow point
[9] = amount of tested sample per 100 g of the pigment at wet point
[10] = 120° C., 3 g of sample, air flow rate 20 L/Hr, time until conductance of the trapped water started rising, esters of Examples 1-12

| Compound | Decomposition ratio [6] [%] | Refractive index ([4]; 30° C.) | Index of oxidation stability [7, 10] [h] | other results |
| --- | --- | --- | --- | --- |
| CC(C)CCCCCCCCCCCCCCCOC(=O)CC(O)C(=O)OCCCCCCCCCCCCCCCC(C)C (centres unmarked) [di-iostearyl malate, di-isostearyl malate] | – | – | – | Red 202 F.P [1, 8]: 200 g; Red 202 W.P [1, 9]: 106 g; Titanium dioxide F.P [2, 8]: 55 g; Titanium dioxide W.P [2, 9]: 26 g; Red iron oxide W.P [3]: 63 g; Refractive index ([4]; 20° C.): 1.4611; Gloss, Candelira wax ([5]; solidified by compounding 20% of candelira wax): 41; Gloss, Ceresin ([5]; solidified by compounding 20% of ceresine): 35 |
| CC(C)CCCCC(=O)OCC(O)CO (centres unmarked) [glyceryl isooctanoate, reference compound] | 8 | – | – | – |
| dimerdiol [PESPOL HP-1000] | – | 1.4778 | – | – |
| erucic acid dimerdiol ester [Example 3] | 79 | 1.4719 | 3 | – |
| hydrogenated rosin dimerdiol ester [Example 1] | 3 | 1.5075 | 6 | – |
| isostearic acid dimerdiol ester [Example 11] | 70 | 1.4709 | 8 | – |
| long chain branched fatty acid dimerdiol ester [Example 7] | – | – | – | Index of oxidation stability [7]: 4 h |
| mono-isostearic acid dimerdiol ester [Example 5] | 71 | 1.4659 | 8 | – |

Source: patent US7427640B1, “Oil materials comprising dimerdiol ester and cosmetics comprising the ester” (Nippon Fine Chemical Co., Ltd., priority 1999, dated 2008)
